Laboratory results as given in PMC5267425, “Identification of small molecule modulators of HIV-1 Tat and Rev protein accumulation” (Retrovirology, 2017).

Test system: cellular gene expression in HeLa rtTA HIV∆Mls cells

Structure (SMILES): Cc1cc(NCc2cccnc2)n2ncc(-c3ccc(Cl)cc3)c2n1 [Compound 791, 3-(4-chlorophenyl)-5-methyl-N-(3-pyridinylmethyl)pyrazolo[1,5-a]pyrimidin-7-amine]
- AARS Mean fold change: 2.833
- ABCC3 Mean fold change: 2.692
- ABCG1 Mean fold change: 3.311
- ABHD6 Mean fold change: 1.566
- AC004490.2 Mean fold change: 2.204
- AC006486.1 expression fold change: 0.690
- AC008763.1 expression fold change: 0.679
- AC009133.2 Mean fold change: 1.588
- AC010442.1 Mean fold change: 1.579
- AC013356.3 expression fold change: 1.345
- AC037487.1 expression fold change: 1.347
- AC068020.2 Mean fold change: 2.561
- AC092295.7 expression fold change: 0.786
- AC135352.1 Mean fold change: 1.465
- AC138904.2 Mean fold change: 2.431
- ACADVL Mean fold change: 1.427
- ACAP3 expression fold change: 0.896
- ACER2 expression fold change: 1.385
- ACN9 expression fold change: 1.202
- ACOT9 expression fold change: 0.729
- ACTN1 expression fold change: 0.801
- ADD1 expression fold change: 0.880
- ADI1 expression fold change: 0.759
- ADO expression fold change: 1.398
- AGPAT2 expression fold change: 0.738
- AGPAT9 Mean fold change: 1.761
- AGXT2L2 Mean fold change: 1.839
- AHCTF1 expression fold change: 1.155
- AIDA expression fold change: 1.199
- AIFM1 expression fold change: 1.118
- AKIRIN2 expression fold change: 1.270
- ALDH2 Mean fold change: 1.928
- ALDOC expression fold change: 0.728
- ALG5 expression fold change: 1.288
- ALKBH8 expression fold change: 1.320
- ALX1 expression fold change: 1.051
- ANKHD1 expression fold change: 1.136
- ANKRD40 expression fold change: 1.260
- ANKRD50 expression fold change: 1.377
- ANKS1A expression fold change: 0.869
- ANXA5 expression fold change: 0.844
- ANXA6 expression fold change: 0.632
- AP2M1 expression fold change: 0.841
- AP3S2 expression fold change: 1.386
- AP000926.1 Mean fold change: 1.726
- APBA3 expression fold change: 1.129
- APOBEC3B expression fold change: 0.520
- ARF1 expression fold change: 0.787
- ARF3 expression fold change: 0.882
- ARG2 Mean fold change: 3.609
- ARHGAP11A expression fold change: 0.778
- ARHGAP26 Mean fold change: 1.819
- ARHGEF2 Mean fold change: 2.222
- ARHGEF4 Mean fold change: 1.690
- ARL4D expression fold change: 1.406
- ARL17B Mean fold change: 1.427
- ARMC10 expression fold change: 1.383
- ARNTL Mean fold change: 1.815
- ARPC5 expression fold change: 0.694
- ARSJ expression fold change: 1.309
- ASB7 expression fold change: 1.181
- ASB8 expression fold change: 1.184
- ASCC1 expression fold change: 1.134
- ASNS Mean fold change: 5.898
- ASNSD1 expression fold change: 1.208
- ATF4 Mean fold change: 1.683
- ATG4B expression fold change: 1.240
- ATG12 expression fold change: 1.178
- ATG16L1 expression fold change: 1.132
- ATIC expression fold change: 1.115
- ATP2B1 Mean fold change: 1.479
- ATP5H expression fold change: 1.145
- ATP6AP1L Mean fold change: 1.979
- ATP6V0A1 expression fold change: 0.795
- ATP6V1B2 expression fold change: 1.261
- ATP8B1 expression fold change: 0.527
- ATXN7L2 expression fold change: 1.076
- AUP1 expression fold change: 1.231
- AVL9 expression fold change: 1.338
- AXIN1 expression fold change: 1.266
- B3GNT1 expression fold change: 0.674
- B3GNT5 Mean fold change: 2.008
- B4GALT5 expression fold change: 1.380
- BAT3 expression fold change: 0.841
- BAZ1B expression fold change: 1.159
- BCAR1 expression fold change: 0.869
- BCAR3 Mean fold change: 1.528
- BCL7A expression fold change: 1.302
- BCOR expression fold change: 0.835
- BCORL1 expression fold change: 0.826
- BEST1 Mean fold change: 1.710
- BHLHB9 expression fold change: 0.836
- BICD1 expression fold change: 1.280
- BIVM expression fold change: 1.241
- BMP2K expression fold change: 1.246
- BMPR1B expression fold change: 0.758
- BRWD2 expression fold change: 1.126
- BST2 expression fold change: 0.606
- BTRC expression fold change: 1.086
- BUD13 expression fold change: 1.160
- C1D expression fold change: 0.907
- C1orf27 expression fold change: 1.263
- C1orf43 Mean fold change: 1.578
- C1orf103 expression fold change: 1.312
- C1orf109 expression fold change: 1.133
- C1orf115 expression fold change: 0.712
- C1orf131 expression fold change: 1.232
- C2orf18 Mean fold change: 2.057
- C2orf44 expression fold change: 1.212
- C2orf49 expression fold change: 1.330
- C2orf60 Mean fold change: 1.552
- C3orf19 expression fold change: 1.302
- C3orf59 expression fold change: 0.622
- C4orf23 expression fold change: 1.124
- C4orf27 expression fold change: 1.269
- C4orf32 Mean fold change: 1.456
- C4orf43 expression fold change: 1.083
- C5orf13 expression fold change: 0.675
- C5orf15 expression fold change: 0.799
- C5orf30 expression fold change: 1.191
- C5orf37 expression fold change: 1.270
- C5orf45 expression fold change: 1.325
- C5orf51 expression fold change: 1.347
- C6orf48 Mean fold change: 2.042
- C6orf145 expression fold change: 0.730
- C7orf23 expression fold change: 1.243
- C7orf25 expression fold change: 1.354
- C7orf27 expression fold change: 0.879
- C7orf42 expression fold change: 0.864
- C7orf44 expression fold change: 1.193
- C9orf3 expression fold change: 0.575
- C9orf6 expression fold change: 1.317
- C9orf46 expression fold change: 1.230
- C9orf114 expression fold change: 1.133
- C9orf163 expression fold change: 0.820
- C10orf76 expression fold change: 0.797
- C10orf114 expression fold change: 0.622
- C11orf17 Mean fold change: 1.495
- C11orf57 expression fold change: 1.379
- C11orf73 expression fold change: 1.274
- C12orf35 expression fold change: 1.357
- C12orf41 Mean fold change: 1.427
- C12orf65 expression fold change: 1.231
- C12orf73 expression fold change: 1.310
- C13orf23 expression fold change: 1.356
- C14orf79 Mean fold change: 1.679
- C14orf104 expression fold change: 1.167
- C14orf147 expression fold change: 0.683
- C14orf167 Mean fold change: 1.721
- C15orf61 expression fold change: 1.088
- C16orf63 expression fold change: 1.203
- C16orf72 expression fold change: 1.363
- C17orf75 expression fold change: 1.209
- C17orf80 expression fold change: 1.234
- C18orf19 expression fold change: 1.208
- C18orf25 expression fold change: 1.336
- C18orf45 expression fold change: 1.218
- C19orf28 expression fold change: 0.696
- C19orf55 expression fold change: 1.216
- C19orf57 Mean fold change: 2.062
- C20orf29 expression fold change: 0.759
- C20orf177 expression fold change: 1.123
- C22orf23 Mean fold change: 1.568
- CA5B Mean fold change: 1.804
- CALD1 expression fold change: 0.520
- CAP2 expression fold change: 0.518
- CAPN1 expression fold change: 0.764
- CARS Mean fold change: 2.332
- CASC5 expression fold change: 0.767
- CASP8 expression fold change: 1.182
- CAT Mean fold change: 1.598
- CAV2 expression fold change: 0.581
- CC2D2A expression fold change: 0.869
- CCBL2 expression fold change: 1.248
- CCDC22 expression fold change: 1.134
- CCDC25 expression fold change: 1.260
- CCDC40 Mean fold change: 1.891
- CCDC41 expression fold change: 1.182
- CCDC55 expression fold change: 1.136
- CCDC85C expression fold change: 0.665
- CCDC91 Mean fold change: 1.516
- CCDC92 expression fold change: 1.319
- CCDC99 expression fold change: 0.607
- CCDC102A expression fold change: 0.591
- CCDC150 expression fold change: 0.840
- CCNB1IP1 Mean fold change: 1.940
- CCNJ expression fold change: 1.250
- CCNT2 expression fold change: 1.170
- CD276 expression fold change: 0.827
- CDADC1 expression fold change: 1.201
- CDC42EP3 expression fold change: 0.641
- CDK1 expression fold change: 0.737
- CDK4 expression fold change: 1.239
- CDK8 expression fold change: 1.082
- CDK17 expression fold change: 1.247
- CDKL1 expression fold change: 0.840
- CDKN2C expression fold change: 0.598
- CEBPG Mean fold change: 3.507
- CEP70 expression fold change: 0.860
- CES2 Mean fold change: 1.537
- CGN expression fold change: 0.519
- CGRRF1 Mean fold change: 1.453
- CHAC1 Mean fold change: 6.989
- CHCHD4 expression fold change: 1.327
- CHN1 expression fold change: 0.798
- CHN2 expression fold change: 1.345
- CLCN2 expression fold change: 1.278
- CLCN5 Mean fold change: 1.584
- CLEC2D Mean fold change: 1.905
- CLIC4 Mean fold change: 1.468
- CLPTM1L expression fold change: 0.747
- CLUAP1 Mean fold change: 1.416
- CNN2 expression fold change: 0.712
- CNNM3 expression fold change: 0.809
- CNOT4 expression fold change: 1.191
- COG1 expression fold change: 1.328
- COG8 expression fold change: 1.183
- COL4A3BP Mean fold change: 1.572
- COMMD1 expression fold change: 0.832
- COMMD4 expression fold change: 0.856
- COPS7B Mean fold change: 1.473
- COX7A2L expression fold change: 1.194
- COX7A2 expression fold change: 0.949
- COX19 expression fold change: 1.369
- CPD Mean fold change: 1.588
- CREB1 expression fold change: 1.234
- CRTC3 expression fold change: 0.714
- CSE1L expression fold change: 0.867
- CSGALNACT2 expression fold change: 1.343
- CSNK1A1 Mean fold change: 1.528
- CSNK2A1 expression fold change: 1.245
- CSRNP2 expression fold change: 1.269
- CSRP2BP Mean fold change: 1.435
- CSRP2 expression fold change: 0.574
- CST3 expression fold change: 1.145
- CTC-241N9.1 Mean fold change: 1.850
- CTD-2526A2.1 Mean fold change: 1.524
- CTH Mean fold change: 2.646
- CTNND1 expression fold change: 0.683
- CTSL1 Mean fold change: 1.489
- CTTNBP2 expression fold change: 0.629
- CUEDC2 expression fold change: 1.278
- CWC25 expression fold change: 1.169
- CXADR expression fold change: 1.102
- CYFIP1 expression fold change: 0.887
- CYP2R1 Mean fold change: 1.818
- CYP2S1 expression fold change: 1.098
- CYTH3 expression fold change: 0.536
- DAB2 expression fold change: 0.623
- DAG1 expression fold change: 0.608
- DAGLB expression fold change: 0.867
- DBF4B expression fold change: 0.760
